The nature of the data set: solvent given as SMILES.

From the Deep4Chem optical property database come the findings set out here.

For `CC1=C(c2ccccc2)Oc2cc3nc4ccccc4nc3c3cccc1c23`, the absorption maximum (in ClCCl) came to 495 nm.

With `c1ccc(-c2cc(-c3ccccc3)[o+]c(-c3ccccc3)c2)cc1`, the absorption maximum (in CC#N) is 403 nm and the absorption maximum (in ClCCCl) was 420 nm.

With `COC(=O)C1(C(=O)OC)Cc2c(C#Cc3ccc(OC)cc3)c(-c3ccc(OC)cc3)c3c(-c4ccccc4)c(-c4ccccc4)c(-c4ccccc4)c(-c4ccccc4)c3c2C1`, for the setting “in C1CCOC1”, the absorption maximum worked out at 348.89 nm.

`CC1=[N+]2C(=C(c3ccccc3)c3c4c5ccccc5c5ccccc5c4c(C)n3[B-]2(F)F)c2c1c1ccccc1c1ccccc21` returned an absorption maximum (in CCCCCC) of 630 nm.

Compound `CCCCC(CC)CN1C(=O)C2=C(c3ccc(-c4ccc(C5=C6C(C)=CC(C)=[N+]6[B-](F)(F)n6c(C)cc(C)c65)cc4)s3)N(CC(CC)CCCC)C(=O)C2=C1c1cccs1` (stereo not given) gave an absorption maximum (in Cc1ccccc1) of 580 nm.

Regarding `N#Cc1c2nc3ccccn3c2nc2c1nc1ccccn12`, the absorption maximum was found to be 410 nm (in C1CCCCC1); 425 nm (in C1COCCO1); 430 nm (in CC#N); 435 nm (in CN(C)C=O); 425 nm (in ClC(Cl)Cl).

Take `Nc1ccc2c(c1)Cc1ccccc1-2`: the absorption maximum runs as follows: (in C1CCCCC1) 318 nm; (in C1COCCO1) 322 nm; (in CC#N) 325 nm; (in CC(C)O) 317 nm; (in CCCCCC) 318 nm; (in CCCCCCC) 317 nm. This compound yielded an absorption maximum (in CCO) of 317 nm; an absorption maximum (in CCOC(C)=O) of 325 nm; an absorption maximum (in CCOCC) of 318 nm; an absorption maximum (in CO) of 317 nm; an absorption maximum (in ClCCl) of 319 nm; an absorption maximum (in O) of 315 nm.

For the compound `CN(C)c1ccc2c3c(ccc2c1)C(=O)CCC3`, the absorption maximum stood at 347 nm (in C1CCCCC1); 356 nm (in CC#N); 368 nm (in CC(C)O); 356 nm (in CCC(C)=O); 369 nm (in CCO); 353 nm (in CCOC(C)=O). Also, the absorption maximum (in CS(C)=O) was 363 nm, the absorption maximum (in Cc1ccccc1) was found to be 353 nm, the absorption maximum (in ClCCl) is 358 nm and the absorption maximum (in Clc1ccccc1) is reported as 357 nm.

For the compound `F[B-]1(F)OC(c2ccc(C(F)(F)F)cc2)=Cc2c3ccccc3c3ccccc3[n+]21`, where the note is “in ClC(Cl)Cl”, the absorption maximum came to 430 nm.

As for `COc1ccc(-c2ccc3c(c2)[Si](C)(C)c2cc(-c4ccc(OC)cc4)ccc2C=C3)cc1`, the absorption maximum (in ClCCl) is 385 nm.

Compound `O=c1c2ccccc2n(-c2ccc(-c3ccc(N(c4ccccc4)c4ccccc4)cc3)cc2)c2ccccc12` yielded an absorption maximum (in ClCCl) of 394 nm.

`[C-]#[N+]c1ccc(-c2ccc(N)cc2)cc1` came in with an absorption maximum (in C1CCCCC1) of 302 nm; an absorption maximum (in C1CCOC1) of 319 nm; an absorption maximum (in C1COCCO1) of 315 nm; an absorption maximum (in CC#N) of 310 nm; an absorption maximum (in CC(C)=O) of 329 nm; an absorption maximum (in CCCCCC) of 301 nm. This compound also had an absorption maximum (in CCOC(C)=O) of 315 nm; an absorption maximum (in CN(C)C=O) of 314 nm; an absorption maximum (in CO) of 308 nm; an absorption maximum (in CS(C)=O) of 318 nm; an absorption maximum (in Cc1ccccc1) of 310 nm; an absorption maximum (in ClC(Cl)Cl) of 305 nm. Moreover, the absorption maximum reads like this: (in ClCCl) 307 nm; (in O) 298 nm; (in c1ccncc1) 325 nm.

Regarding `CC(C)(C)c1ccc2c(c1)c1cc(C(C)(C)C)ccc1n2-c1ccc(-c2ccc3c(c2)C(=O)c2ccc(-c4ccc(-n5c6ccc(C(C)(C)C)cc6c6cc(C(C)(C)C)ccc65)cc4)cc2C3=O)cc1`, for the setting “in Cc1ccccc1”, the absorption maximum came to 426 nm.

With `CCC1=C(C)C2=C(c3c(C)cc(C)nc3-c3cccs3)c3c(C)c(CC)c(C)n3[B-](F)(F)[N+]2=C1C`, the absorption maximum is, setting by setting: (in C1CCCCC1) 532 nm; (in C1CCOC1) 532 nm; (in C1COCCO1) 533 nm; (in CC#N) 530 nm; (in CCCCCC) 531 nm; (in CCO) 531 nm. In addition, the absorption maximum is, setting by setting: (in CCOC(C)=O) 531 nm; (in CCOCC) 530 nm; (in CN(C)C=O) 532 nm; (in CS(C)=O) 534 nm; (in Cc1ccccc1) 533 nm; (in ClC(Cl)(Cl)Cl) 534 nm. The absorption maximum (in ClC(Cl)Cl) worked out at 535 nm.

Consider `COc1ccccc1NC1=CC(=O)c2ccccc2C1=O`, for which the absorption maximum amounted to 468 nm (in CCCCCC) and 476 nm (in CO).

As for `O=C(O)CCNc1cccc2ccccc12`, the absorption maximum (in CCO) was determined as 330 nm.

As to `CC(C)[Si](C#Cc1c2nc3ccccc3nc2c(C#C[Si](C(C)C)(C(C)C)C(C)C)c2nc3c(ccc4ccccc43)nc12)(C(C)C)C(C)C`, the absorption maximum (in CCCCCC) is given as 649 nm.

In the case of `[O-][n+]1c(/C=C/c2ccccc2)nc(N2CCOCC2)c2c1CCCC2`, the absorption maximum (in ClCCl) was 400 nm.

`CCB1c2ccccc2Nc2ccccc21` gave an absorption maximum (in ClCCl) of 381 nm.

Regarding `CCC1(CC)c2cc(B(c3c(C)cc(C)cc3C)c3c(C)cc(C)cc3C)ccc2-c2ccc(N(c3ccccc3)c3ccccc3)cc21`, the absorption maximum came out at 400 nm (in C1CCOC1); 394 nm (in CC#N); 398 nm (in CC(C)=O); 401 nm (in CCCCCC); 396 nm (in CN(C)C=O); 403 nm (in Cc1ccccc1). In addition, the absorption maximum (in ClC(Cl)Cl) is on record as 402 nm.

With `CCCC1=Cc2nc1ccc1[nH]c(cc1CCC)c1nc(c(OC(C)=O)cc3[nH]c2cc3CCC)C(CCC)=C1`, the absorption maximum (in Cc1ccccc1) is given as 645 nm.

`COc1cc(OC)c2ccc(=O)oc2c1`: the absorption maximum runs as follows: (in CC(C)O) 324 nm; (in CCO) 324 nm; (in CCOCC) 318 nm; (in CO) 324 nm; (in O) 327 nm.

Consider `CCCCn1c2ccc(C#N)cc2c2cc(C#N)cc(-c3ccc(N(c4ccccc4)c4ccccc4)cc3)c21`, for which the absorption maximum (in ClCCl) worked out at 352 nm.

The compound `CC1(C)OB(c2ccc3ccc4cccc5ccc2c3c45)OC1(C)C` showed an absorption maximum (in Cc1ccccc1) of 378 nm.

Compound `CC(C)=CCN1C(=O)c2cccc3c2c(cc2oc(C)nc23)C1=O` gave an absorption maximum (in CCO) of 362 nm.

For the compound `c1ccc(-c2nc(-c3ccccc3)nc(-c3ccc(-n4c5ccccc5c5cc(-n6c7ccccc7c7ccccc76)ccc54)c4c5ccccc5n(-c5ccccc5)c34)n2)cc1`, for the setting “in Cc1ccccc1”, the absorption maximum was found to be 378.07 nm.

`C(=C\c1ccnc2ccccc12)/c1c2ccccc2cc2ccccc12`: the absorption maximum was 387 nm (in CC1CCCCC1) and 387 nm (in CC#N).

`Cc1ccc2c(c1)nnn2-c1c(C#N)c2c(N)ncnc2n1[C@H]1C[C@H](O)[C@@H](CO)O1` yielded an absorption maximum (in CO) of 278 nm.

`CCCCCCC(CCCCCC)N1C(=O)c2cccc3c(-c4ccccc4)ccc(c23)C1=O`: the absorption maximum by setting is: (in CCCCCC) 342.2 nm; (in CCCCCCCCCCCCCC) 343.4 nm; (in CCCCCCCCCCCO) 353.4 nm; (in CCCCO) 355.2 nm; (in CN(C)C=O) 355.2 nm; (in Cc1ccccc1) 346.8 nm. This compound had an absorption maximum (in ClC(Cl)Cl) of 355.4 nm.

`COC(=O)C1=C(C(=O)OC)C2(c3ccccc3-c3c(Br)cc(Br)cc32)C2(/C=C/c3ccc(Cl)cc3)c3cc(OC)c(OC)cc3CCN12` (stereo not given) showed an absorption maximum (in ClCCl) of 328 nm.

As for `CCNc1cc2c(cc1C)C(c1ccccc1C(=O)O)=C1CCCC(/C=C/C3=[N+](C)c4ccc5ccccc5c4C3(C)C)=C1O2`, the absorption maximum (in CC#N) amounted to 716 nm, the absorption maximum (in CCO) is given as 708 nm, the absorption maximum (in CO) came to 710 nm and the absorption maximum (in ClC(Cl)Cl) is on record as 722 nm.

Compound `O=Cc1ccc2nc(C#Cc3ccc(N(c4ccc(C#Cc5nc6ccc(C=O)cc6s5)cc4)c4ccc(C#Cc5nc6ccc(C=O)cc6s5)cc4)cc3)sc2c1` registered an absorption maximum (in Cc1ccccc1) of 421 nm.

The compound `CC1=C2C3=C(CCc4ccccc43)C(C)=[N+]2[B-](F)(F)n2c(C)c3c(c21)-c1ccccc1CC3` registered an absorption maximum (in CC#N) of 559 nm.

Under “in C1CCOC1”, `COc1cc2oc(=O)c3c4ccc(C=O)cc4c4ccc5cccc6c(c1)c2c3c4c56` yielded an absorption maximum of 425 nm.

`Cc1nc2cccc(-c3nc4ccccc4o3)c2c(=O)[nH]1` had an absorption maximum (in CN(C)C=O) of 310 nm.

`O=C1/C(=C2\Sc3ccc(S(=O)(=O)Nc4ccccc4)cc3C2=O)Sc2ccc(S(=O)(=O)Nc3ccccc3)cc21`: the absorption maximum by setting is: (in C1COCCO1) 534 nm; (in CN(C)C=O) 542 nm; (in CO) 536 nm; (in CS(C)=O) 546 nm.

Where the note is “in ClCCl”, `F[B-]1(F)OC(C#Cc2ccccc2)=CC(c2ccccc2)=[O+]1` showed an absorption maximum of 401 nm.

`O=C1c2ccccc2C(=O)C1C1C(=O)c2c3ccccc3cc3cc4ccccc4c1c23` (stereo not given): the absorption maximum (in ClCCl) is listed as 505.72 nm.

The compound `COc1ccc2c3c(c4ccc(C(C)(C)C)cc4c2c1)=C(c1cc(OC)c(OC)c(OC)c1)C1=Nc2c(-c4cc(OC)c(OC)c(OC)c4)c4c5ccc(C(C)(C)C)cc5c5cc(OC)ccc5c4n2[B-](F)(F)[N+]=31` displayed an absorption maximum (in Cc1ccccc1) of 797 nm.

Turning to `CCN(CC)/C(C)=N\c1ccc2c3c(cccc13)C(=O)c1ccccc1-2`, the absorption maximum is reported as 472 nm (in C1CCOC1); 444 nm (in CCCCCC); 473 nm (in CCO); 463 nm (in CCOC(C)=O); 479 nm (in CN(C)C=O); 472 nm (in CO). Further, the absorption maximum reads like this: (in Cc1ccccc1) 461 nm; (in ClC(Cl)(Cl)Cl) 467 nm; (in ClC(Cl)Cl) 467 nm; (in ClCCl) 467 nm; (in c1ccccc1) 462 nm.
